One data set deals with HCMV. Description: Anti-HCMV cytopathogenicity test (CPE inhibition). In kind it is cell-based, human cytomegalovirus. To be noted: for EC50: Human betaherpesvirus 5, 144 h, HCMV-infected NHDF cells, M.O.I. 0.001-0.003, 6 days, inhibition of CPE by 50%; for SI HCMV: selectivity index = CC50 (NHDF)/EC50 (HCMV). The procedure: (§1) Anti-HCMV (Anti-Human Cytomegalovirus) Cytopathogenicity Tests The test compounds are employed as 50 millimolar (mM) solutions in dimethyl sulfoxide (DMSO). Ganciclovir® serves as reference compound. After the addition of 2 μl of the 50, 5, 0.5 and 0.05 mM DMSO stock solutions respectively to 98 μl portions of cell culture medium in row […] for duplicate determinations, 1:2 dilutions are carried out with 50 μl portions of medium up to row 11 of the 96-well plate. The wells in rows 1 and 12 each contain 50 μl of medium. 150 μl of a suspension of 1×10^4 cells (human prepuce fibroblasts [NHDF]) are then pipetted into each of the wells (row 1=cell control) and, in rows 2-12, a mixture of HCMV-infected and uninfected NHDF cells (M.O.I.=0.001-0.003), i.e. 1-3 infected cells per 1000 uninfected cells. Row 12 (without substance) serves as virus control. The final test concentrations are […]. The plates are incubated at 37° C./5% CO2 for 6 days, i.e. until all the cells in the virus controls are infected (100% cytopathogenic effect [CPE]). The wells are then fixed and stained by the addition of a mixture of formalin and Giemsa's dye (30 min), washed with bidistilled water and dried in a drying oven at 50° C. The plates are then assessed visually using an overhead microscope (plaque multiplier from Technomara). The following data can be obtained from the test plates: EC50 (HCMV)=substance concentration in MM which inhibits the CPE (cytopathic effect) by 50% in comparison with the untreated virus control; SI (selectivity index)=CC50 (NHDF)/EC50 (HCMV).

Data set [1] in a line: Anti-HCMV cytopathogenicity test, cytostatic effect on uninfected cells. The format is cell-based. To be noted: human, NHDF cells (human prepuce fibroblasts), 6 days incubation, visual assessment. The procedure: as §1, with “plates: CC50 (NHDF)=substance” for “plates: EC50 (HCMV)=substance”, “MM at” for “MM”, “which no visible cytostatic effects on” for “which inhibits”, “the cells are evident” for “the CPE (cytopathic effect) by 50%”, “untreated cell” for “untreated virus”, “control;” for “control; SI (selectivity index)=CC50 (NHDF)/EC50 (HCMV).”

The nature of data set [2]: Pharmacokinetical investigations after intravenous or oral administration. The format is in vivo. To be noted: male Wistar rat. The procedure: Pharmacokinetical Investigations
The pharmacokinetics of the active substances are investigated after intravenous or oral administration of doses in the range from 1 mg/kg intravenously and 3 mg/kg orally to three male Wistar rats per administration route. In order to make a repeated removal of blood possible a catheter is implanted into the jugular vein of the animals on the day before the experiment. The substances are administered intravenously as well as orally as a solution. Thereby, in most cases a plasma formulation (rat plasma with 1-2% ethanol or DMSO, 2 ml/kg) is used for the intravenous administration and a PEG formulation (10% ethanol, 40% PEG 400, 50% water, 5 ml/kg) is used for the oral administration.
After the administration of the active substance blood samples are collected over 24 h via the catheter into heparin-containing sample tubes. Subsequently to the removal of blood the blood samples are centrifuged and the plasma supernatant is pipetted into Eppendorf tubes. The plasma samples are stored at least −15° C. until the analysis takes place.
For the work-up the samples are thawed. The plasma proteins are subsequently precipitated by the addition of acetonitrile which comprises an internal standard. As internal standard a substance from the same structural class is selected which is structurally as similar as possible to the active compound. For the preparation of calibration samples different concentrations of the active substance are added to aliquots of empty plasma and these are worked up together with the unknown samples. Additionally quality control samples with three different concentrations are prepared which serve to validate the analytical procedure.
The determination of the active substance in the samples takes place by high performance liquid chromatography with mass spectrometrical detection (LC/MS-MS). The active substance concentrations in the unknown samples are determined based on their relative peak heights or areas compared to the calibration curve using the program Concalc for Windows (CCW, Integrierte Labordatensysteme, version 2.5 or later, Bayer AG). Subsequently, the pharmacokinetical parameters are calculated from the plasma concentration development over time individualized to an animal using non-compartimental analysis with the aid of the program KINCALC, version 2.50.02 (Bayer AG, 2001).
The following data can be acquired from these tests:
AUC=total area under the drug-concentration over time curve;
Cmax=maximum concentration;

[3] abbreviates: 3 mg/kg p.o., solution in 10% ethanol, 40% PEG 400, 50% water, 5 ml/kg.

Structures are written as SMILES.

Consider `N#CC1(C(=O)Nc2cc(F)cc(NS(=O)(=O)c3ccc(-c4noc(-c5cccc(N)n5)n4)cc3)c2)CC1` [Example 1, N-{3-[({4-[5-(6-Aminopyridin-2-yl)-1,2,4-oxadiazol-3-yl]phenyl}sulfonyl)amino]-5-fluorophenyl}-1-cyanocyclopropanecarboxamide], for which, in the data set on HCMV, the midpoint of the response, the EC50, lay at 0.011 µM and the “SI HCMV” value is 6450. In data set [1], this molecule registered a CC50 at 6 days of 71 µM. In addition, the half-life in data set [2] (iv, 1.3 mg/kg i.v., solution in rat plasma with 1% DMSO, 2 ml/kg) is 4.26 h. Further, in data set [2] (iv, 1.3 mg/kg i.v., solution in rat plasma with 1% DMSO, 2 ml/kg, read-out: CLPlasma (converted)), the clearance is 1.07 mL/min/kg. Besides, the Vd in data set [2] (iv, 1.3 mg/kg i.v., solution in rat plasma with 1% DMSO, 2 ml/kg, read-out: Vss) was found to be 0.321 L/kg. The same molecule had a CLBlood in data set [2] (1.3 mg/kg i.v., solution in rat plasma with 1% DMSO, 2 ml/kg) of 2.13 mL/min/kg. Moreover, in data set [2] (setting [3]), the “AUCnorm, p.o.” value worked out at 8.58 kg·h/L and the “Cmax, norm, p.o.” value is 1.08 kg/L. For the same molecule, in data set [2] (plasma, po, 3 mg/kg p.o., solution in 10% ethanol, 40% PEG 400, 50% water, 5 ml/kg, read-out: F (bioavailability)), the bioavailability is 55.3%.

As to `N#CC1(C(=O)Nc2cccc(NS(=O)(=O)c3ccc(-c4noc(-c5cccc(N)n5)n4)cc3)c2)CC1` [Example 2, N-{3-[({4-[5-(6-Aminopyridin-2-yl)-1,2,4-oxadiazol-3-yl]phenyl}sulfonyl)amino]phenyl}-1-cyanocyclopropanecarboxamide], in the data set on HCMV, the EC50 was determined as 0.007 µM and the “SI HCMV” value worked out at 20140. The CC50 at 6 days in data set [1] came to 141 µM.

On to `Cc1c(NC(=O)C2(C#N)CC2)cccc1NS(=O)(=O)c1ccc(-c2noc(-c3cccc(N)n3)n2)cc1` [Example 3, N-{3-[({4-[5-(6-Aminopyridin-2-yl)-1,2,4-oxadiazol-3-yl]phenyl}sulfonyl)amino]-2-methylphenyl}-1-cyanocyclopropanecarboxamide], for which, in the data set with HCMV, the EC50 stood at 0.002 µM and the “SI HCMV” value is listed as 51000. The same molecule displayed a CC50 at 6 days in data set [1] of 102 µM.

On to `Cl.N#CC1(C(=O)Nc2cccc(NS(=O)(=O)c3ccc(C#Cc4cccc(N)n4)cc3)c2)CC1` [Example 4, N-{3-[({4-[(6-Aminopyridin-2-yl)ethynyl]phenyl}sulfonyl)amino]phenyl}-1-cyanocyclopropanecarboxamide Hydrochloride], for which, in the data set with HCMV, the EC50 was 0.021 µM and the “SI HCMV” value stood at 2240. The molecule also registered a CC50 at 6 days in data set [1] of 47 µM.

For the molecule `CC(=O)Nc1cccc(-c2nc(-c3ccc(S(=O)(=O)Nc4cc(F)cc(NC(=O)C5(C#N)CC5)c4)cc3)no2)n1` [Example 5, N-{3-[({4-[5-(6-Acetylaminopyridin-2-yl)-1,2,4-oxadiazol-3-yl]phenyl}sulfonyl)amino]-5-fluorophenyl}-1-cyanocyclopropanecarboxamide], in the data set on HCMV, the EC50 was found to be 0.026 µM and the “SI HCMV” value turned out to be 2730. Moreover, the CC50 at 6 days in data set [1] worked out at 71 µM.

The record behind these values is patent publication US8318761B2, “Substituted arylsulfonamides as antiviral agents” (Aicuris GmbH & Co. KG, priority 2006, dated 2012).
